Values after ≈ are worked out from the molar mass of the structure shown.
Legend:
Type in all cases: cell-based, Staphylococcus aureus
Staph aureus 1095 MRSA = assay: MIC, microtiter broth dilution (CLSI M7-A7), Assay 1, Table 12 column A, no serum; conditions: Assay 1, no serum; for MIC: Staphylococcus aureus, MRSA
Summary of the method: (§1)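 Testing followed the CLSI M7-A7 dilution standard in microtiter trays, with serum conditions using Mueller-Hinton Broth plus 50% pooled inactivated human serum. Values are the lowest concentrations with no macroscopically visible growth.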

Staph aureus 1146 [1] = assay: MIC, microtiter broth dilution (CLSI M7-A7), Assay 1, Table 12 column B, no serum; conditions: for MIC: Staphylococcus aureus, 1146, Staph aureus 1146, Assay 1, no serum; for MIC, column B: Staph aureus 1146, Assay 1, no serum
Summary of the method: as §1

Staph aureus 1146 [2] = assay: MIC in Mueller-Hinton Broth with 50% pooled inactivated human serum, Assay 1, Table 12; conditions: for MIC: Staphylococcus aureus, 1146, Staph aureus 1146, Assay 1, 50% human serum, read-out: MIC, column C; for MIC, column C: Staph aureus 1146, Assay 1, 50% human serum
Summary of the method: as §1

Staph aureus 2811 = assay: MIC, microtiter broth dilution (CLSI M7-A7), Assay 1, Table 12 column D, no serum; conditions: for MIC: Staphylococcus aureus, 2811, Staph aureus 2811, Assay 1, no serum; for MIC, column D: Staph aureus 2811, Assay 1, no serum
Summary of the method: as §1

Staph aureus 2812 = assay: MIC, microtiter broth dilution (CLSI M7-A7), Assay 1, Table 12 column E, no serum; conditions: for MIC: Staphylococcus aureus, 2812, Staph aureus 2812, Assay 1, no serum; for MIC, column E: Staph aureus 2812, Assay 1, no serum
Summary of the method: as §1

Row | Compound | MIC (Staph aureus 1095 MRSA) | MIC (Staph aureus 1146 [1]) | MIC (Staph aureus 1146 [2]) | MIC (Staph aureus 2811) | MIC (Staph aureus 2812) | MIC, column A (Staph aureus 1095 MRSA) | MIC, column B (Staph aureus 1146 [1]) | MIC, column C (Staph aureus 1146 [2]) | MIC, column D (Staph aureus 2811) | MIC, column E (Staph aureus 2812)
1 | COc1ccc2nccc(C(O)CC[C@@H]3CCN(C4CC(c5nc(C6CCC6)no5)C4)C[C@@H]3C(=O)O)c2c1 (stereo partly drawn) [Example 163, (3R,4R)-1-[3-(3-cyclobutyl-1,2,4-oxadiazol-5-yl)cyclobutyl]-4-[3-hydroxy-3-(6-methoxyquinolin-4-yl)propyl]piperidine-3-carboxylic acid] | > 64 µg/mL | 64 µg/mL (≈ 123 µM) | > 64 µg/mL | > 64 µg/mL | > 64 µg/mL | – | – | – | – | –
2 | COc1ccc2ncc(F)c(C(O)CC[C@@H]3CCN(C4CC(c5cc(F)ccc5F)C4)C[C@@H]3C(=O)O)c2n1 (stereo partly drawn) [Example 217, (3R,4R)-1-[3-(2,5-difluorophenyl)cyclobutyl]-4-[3-(3-fluoro-6-methoxy-1,5-naphthyridin-4-yl)-3-hydroxypropyl]piperidine-3-carboxylic acid] | – | – | – | – | – | 0.125 µg/mL (≈ 0.236 µM) | 0.0600 µg/mL (≈ 0.113 µM) | 2.00 µg/mL (≈ 3.78 µM) | 0.125 µg/mL (≈ 0.236 µM) | 0.0600 µg/mL (≈ 0.113 µM)
3 | COc1ccc2ncc(F)c([C@@H](O)CNC3(C(=O)O)CCCN(C4CC(c5ccccc5)C4)CC3)c2c1 (single isomer, unassigned) [Example 149] | 8 µg/mL (≈ 15.8 µM) | 2 µg/mL (≈ 3.94 µM) | 4 µg/mL (≈ 7.88 µM) | 2 µg/mL (≈ 3.94 µM) | 2 µg/mL (≈ 3.94 µM) | – | – | – | – | –
4 | COc1ccc2nccc([C@H](O)CC[C@@H]3CCN(C4CC(c5ccccc5F)C4)C[C@@H]3C(=O)O)c2c1 (stereo partly drawn) [Example 90, (3R,4R)-1-[3-(2-fluorophenyl)cyclobutyl]-4-[(3R)-3-hydroxy-3-(6-methoxyquinolin-4-yl)propyl]piperidine-3-carboxylic acid] | < 0.0625 µg/mL | < 0.0625 µg/mL | 1 µg/mL (≈ 2.03 µM) | < 0.0625 µg/mL | < 0.0625 µg/mL | – | – | – | – | –
5 | COc1ccc2nccc(C(O)CC[C@@H]3CCN(C4CC(O)(c5ccccc5)C4)C[C@@H]3C(=O)O)c2c1 (stereo partly drawn) [Example 94, (3R,4R)-4-[3-hydroxy-3-(6-methoxyquinolin-4-yl)propyl]-1-(3-hydroxy-3-phenylcyclobutyl)piperidine-3-carboxcylic acid] | – | – | – | – | – | >64 µg/mL | 32 µg/mL (≈ 65.2 µM) | >64 µg/mL | >64 µg/mL | >64 µg/mL
6 | COc1ccc2ncc(Cl)c([C@@H](O)CNC3(C(=O)O)CCCN(C4CC(c5ccccc5)C4)CC3)c2c1 (single isomer, unassigned) [Example 148] | – | – | – | – | – | 4 µg/mL (≈ 7.63 µM) | 1 µg/mL (≈ 1.91 µM) | 4 µg/mL (≈ 7.63 µM) | 1 µg/mL (≈ 1.91 µM) | 1 µg/mL (≈ 1.91 µM)
7 | CNC(=O)[C@H]1CN(C2CC(c3ccccc3)C2)CC[C@H]1CCC(O)c1ccnc2ccc(OC)cc12 (stereo partly drawn) [Example 145, (3R,4R)-4-[3-Hydroxy-3-(6-methoxy-quinolin-4-yl)-propyl]-1-(3-phenyl-cyclobutyl)-piperidine-3-carboxylic acid methylamide] | 0.25 µg/mL (≈ 0.513 µM) | 1 µg/mL (≈ 2.05 µM) | 4 µg/mL (≈ 8.2 µM) | 0.5 µg/mL (≈ 1.03 µM) | 1 µg/mL (≈ 2.05 µM) | – | – | – | – | –
8 | COc1ccc2nccc(C(O)CC[C@@H]3CCN(C4CC(c5ccc(O)cc5)C4)C[C@@H]3C(=O)O)c2c1 (stereo partly drawn) [Example 31, (3R,4R)-4-[3-hydroxy-3-(6-methoxyquinolin-4-yl)propyl]-1-[3-(4-hydroxyphenyl)cyclobutyl] piperidine-3-carboxylic acid] | 16 µg/mL (≈ 32.6 µM) | 32 µg/mL (≈ 65.2 µM) | > 64 µg/mL | 32 µg/mL (≈ 65.2 µM) | 32 µg/mL (≈ 65.2 µM) | – | – | – | – | –
9 | COc1ccc2nccc(C(N)CC[C@@H]3CCN(C4CC(c5ccccc5)C4)C[C@@H]3C(=O)O)c2c1 (stereo partly drawn) [Example 138, (3R,4R)-4-[3-Amino-3-(6-methoxy-quinolin-4-yl)-propyl]-1-(3-phenyl-cyclobutyl)-piperidine-3-carboxylic acid] | 2 µg/mL (≈ 4.22 µM) | 1 µg/mL (≈ 2.11 µM) | 0.5 µg/mL (≈ 1.06 µM) | 0.5 µg/mL (≈ 1.06 µM) | 2 µg/mL (≈ 4.22 µM) | – | – | – | – | –
10 | COc1ccc2ncc(Cl)c(C(O)CCC3(C(=O)O)CCN(C4CC(c5cc(F)ccc5F)C4)C3)c2c1 (centres unmarked) [Example 184, 3-[3-(3-chloro-6-methoxyquinolin-4-yl)-3-hydroxypropyl]-1-[3-(2,5-difluorophenyl)cyclobutyl] pyrrolidine-3-carboxylic acid] | 0.25 µg/mL (≈ 0.471 µM) | < 0.0625 µg/mL | 8 µg/mL (≈ 15.1 µM) | < 0.0625 µg/mL | < 0.0625 µg/mL | – | – | – | – | –
11 | COc1ccc2nccc([C@@H](O)CC[C@@H]3CCN(C4CC(c5c(F)ccc(F)c5F)C4)C[C@@H]3C(=O)O)c2c1 (stereo partly drawn) [Example 195, (3R,4R)-4-[(3S)-3-hydroxy-3-(6-methoxyquinolin-4-yl)propyl]-1-[3-(2,3,6-trifluorophenyl)cyclobutyl] piperidine-3-carboxylic acid] | < 0.0625 µg/mL | < 0.0625 µg/mL | 1 µg/mL (≈ 1.89 µM) | < 0.0625 µg/mL | < 0.0625 µg/mL | – | – | – | – | –
12 | COc1ccc2nccc(C(O)CC[C@@H]3CCN(C4CC(c5cccc(Cl)c5)C4)C[C@@H]3C(=O)O)c2c1 (stereo partly drawn) [Example 29, (3R,4R)-1-[3-(3-chlorophenyl)cyclobutyl]-4-[3-hydroxy-3-(6-methoxyquinolin-4-yl)propyl] piperidine-3-carboxylic acid] | 0.5 µg/mL (≈ 0.982 µM) | 0.25 µg/mL (≈ 0.491 µM) | 4 µg/mL (≈ 7.86 µM) | 0.25 µg/mL (≈ 0.491 µM) | 0.25 µg/mL (≈ 0.491 µM) | – | – | – | – | –
13 | (3R,4R)-1-[3-(2,5-difluorophenyl)cyclobutyl]-4-[3-(3-fluoro-6-methoxy-1,5-naphthyridin-4-yl)-3-hydroxypropyl]piperidine-3-carboxylic acid [Example 219] | – | – | – | – | – | 0.250 µg/mL | <0.0625 µg/mL | 2.00 µg/mL | <0.0625 µg/mL | 0.125 µg/mL
14 | COc1ccc2nccc(C(O)CC[C@@H]3CCN(C4CC(CC5CCCC5)C4)C[C@@H]3C(=O)O)c2c1 (some centres unmarked) [Example 49] | – | – | – | – | – | 0.125 µg/mL (≈ 0.26 µM) | <=.0625 μg/ml | 0.25 µg/mL (≈ 0.52 µM) | <=.0625 μg/ml | <=.0625 μg/ml
15 | COc1ccc2nccc(C(O)CCC3CCN(C[C@@H]4C[C@H]4c4cc(F)ccc4F)CC3C(=O)O)c2c1 (relative stereo) [Example 26, 1-{[(trans)-2-(2,5-difluorophenyl)cyclopropyl]methyl}-4-[3-hydroxy-3-(6-methoxyquinolin-4-yl)propyl] piperidine-3-carboxylic acid] | 1 µg/mL (≈ 1.96 µM) | 0.25 µg/mL (≈ 0.49 µM) | 4 µg/mL (≈ 7.83 µM) | 0.25 µg/mL (≈ 0.49 µM) | 0.25 µg/mL (≈ 0.49 µM) | – | – | – | – | –
16 | COc1ccc2nccc(C(O)CC[C@@H]3CCN(C4CC5CCCCCC54)C[C@@H]3C(=O)O)c2c1 (stereo partly drawn) [Example 53, (3R,4R)-1-[(1,7)-bicyclo[5.2.0]non-8-yl]-4-[3-hydroxy-3-(6-methoxyquinolin-4-yl)propyl] piperidine-3-carboxylic acid] | – | – | – | – | – | 16 µg/mL (≈ 34.3 µM) | >64 µg/mL | >64 µg/mL | 32 µg/mL (≈ 68.6 µM) | 16 µg/mL (≈ 34.3 µM)
17 | COc1ccc2ncc(Cl)c(C(O)CCC3(C(=O)O)CCN(C4CC(c5ccccc5)C4)CC3)c2c1 (centres unmarked) [Example 141, 4-(3-(3-chloro-6-methoxyquinolin-4-yl)-3-hydroxypropyl)-1-(3-phenylcyclobutyl)piperidine-4-carboxylic acid] | 2 µg/mL (≈ 3.93 µM) | 1 µg/mL (≈ 1.96 µM) | 32 µg/mL (≈ 62.9 µM) | 0.5 µg/mL (≈ 0.982 µM) | 1 µg/mL (≈ 1.96 µM) | – | – | – | – | –
18 | COc1ccc2nccc(CCCC3(C(=O)O)CCN(CC4CC4c4ccccc4)CC3)c2c1 (centres unmarked) [Example 107, 4-[3-(6-methoxyquinolin-4-yl)propyl]-1-{[(1,2)-2-phenylcyclopropyl]methyl}piperidine-4-carboxylic acid] | – | – | – | – | – | 64 µg/mL (≈ 140 µM) | 64 µg/mL (≈ 140 µM) | >64 µg/mL | 64 µg/mL (≈ 140 µM) | 16 µg/mL (≈ 34.9 µM)
19 | COc1ccc2nccc(C(O)CC[C@@H]3CCN(C4CC(Oc5ccccn5)C4)C[C@@H]3C(=O)O)c2c1 (stereo partly drawn) [Example 104, (3R,4R)-4-[3-hydroxy-3-(6-methoxyquinolin-4-yl)propyl]-1-[3-(pyridin-2-yloxy)cyclobutyl]piperidine-3-carboxylic acid] | > 64 µg/mL | > 64 µg/mL | > 64 µg/mL | > 64 µg/mL | > 64 µg/mL | – | – | – | – | –
20 | COc1ccc2nccc(C(O)CC[C@@H]3CCN(C4CC(c5ccccc5)C4)C[C@@H]3C(N)=O)c2c1 (some centres unmarked) [Example 144] | – | – | – | – | – | <=.0625 μg/ml | <=.0625 μg/ml | 0.25 µg/mL (≈ 0.528 µM) | <=.0625 μg/ml | <=.0625 μg/ml
21 | COc1ccc2nccc(C(O)CC[C@@H]3CCN(C4CC(c5cc(C)no5)C4)C[C@@H]3C(=O)O)c2c1 (stereo partly drawn) [Example 115, (3R,4R)-4-[3-hydroxy-3-(6-methoxyquinolin-4-yl)propyl]-1-[3-(3-methylisoxazol-5-yl)cyclobutyl]piperidine-3-carboxylic acid] | 32 µg/mL (≈ 66.7 µM) | 8 µg/mL (≈ 16.7 µM) | 64 µg/mL (≈ 133 µM) | 8 µg/mL (≈ 16.7 µM) | 16 µg/mL (≈ 33.4 µM) | – | – | – | – | –
22 | COc1ccc2nccc(C(CC[C@@H]3CCN(C4CC(c5ccccc5)C4)C[C@@H]3C(=O)O)N3CCC3)c2c1 (stereo partly drawn) [Example 137, (3R,4R)-4-[3-Azetidin-1-yl-3-(6-methoxy-quinolin-4-yl)-propyl]-1-(3-phenylcyclobutyl)piperidine-3-carboxylic acid] | > 64 µg/mL | 64 µg/mL (≈ 125 µM) | > 64 µg/mL | 64 µg/mL (≈ 125 µM) | 64 µg/mL (≈ 125 µM) | – | – | – | – | –

— patent US20080280879A1, “SUBSTITUTED HETEROCYCLIC DERIVATIVES AND THEIR PHARMACEUTICAL USE AND COMPOSITIONS” (priority 2007, published 2008)
